pEC50: −log10 of the molar value.
Test system: HCV genotype 1a replicon cell line
Assay: EC50 in HCV genotype 1a replicon cell line
Format: cell-based
Conditions: Hepatitis C virus, read-out: EC50 value for the HCV genotype 1a replicon cell line

Compound | pEC50
Cc1cnc(C(=O)N[C@H]2CCCCC/C=C\[C@@H]3C[C@@]3(C(=O)NS(=O)(=O)C3CC3)NC(=O)[C@@H]3C[C@@H](Oc4nc5ccccc5c5ccccc45)CN3C2=O)cn1 [Compound 1, (2R,6S,13aS,14aR,16aS,Z)—N-(cyclopropylsulfonyl)-6-(5-methylpyrazine-2-carboxamido)-5,16-dioxo-2-(phenanthridin-6-yloxy)-1,2,3,5,6,7,8,9,10,11,13a,14,14a,15,16,16a-hexadecahydrocyclopropa[e]pyrrolo[1,2-a][1,4]diazacyclopentadecine-14a-carboxamide] | 9.05
COc1c(-c2ccc3cc(NS(C)(=O)=O)ccc3c2)cc(-n2ccc(=O)[nH]c2=O)cc1C(C)(C)C [Compound 2, N-(6-(3-tert-butyl-5-(2,4-dioxo-3,4-dihydropyrimidin-1(2H)-yl)-2-methoxyphenyl)naphthalen-2-yl)methanesulfonamide] | 8.11
COC(=O)N[C@H](C(=O)N1CCC[C@H]1C(=O)Nc1ccc([C@@H]2CC[C@@H](c3ccc(NC(=O)[C@@H]4CCCN4C(=O)[C@@H](NC(=O)OC)C(C)C)cc3)N2c2ccc(C(C)(C)C)cc2)cc1)C(C)C [Compound 4] | 11.00

From US8685984B2, “Methods for treating HCV” (AbbVie Inc., priority 2011, dated 2014)
